In PMC11233548 (Communications Biology, 2024):
Entries after “also recorded” stand apart in the source; their conditions may differ. Where two headings read alike, the source gives them in different places. Starred links: 1 amine or outer side, 2 acyl side, 3 side chain; linkers in the order of their positions; H or OH if unused. Primed or numbered codes have the meaning given here. No end group written: not given here. *: point of attachment. PEG5′ = linker from Fmoc-PEG5-OH (18-amino-4,7,10,13-tetraoxaoctadecanoic acid), O=C(CCOCCOCCOCCOCCCCCN[*:1])[*:2]; fluorescein = fluorescein label on the N-terminal amino group, attached via an aminohexanoic acid linker; FITC = O=C1OC2(c3ccc(O)cc3Oc3cc(O)ccc32)c2ccc(NC(=S)*)cc21; Biotin = O=C1N[C@H]2[C@H](CS[C@H]2CCCCC(=O)*)N1; Ahx = NCCCCCC(=O)O

Columns and labels:
H-RasG12V nanoclustering [1] = test: H-RasG12V nanoclustering-BRET in HEK cells; format: cell-based, human; conditions: n = 3
[2] = system: Hs 578 T cells (pERK, pAkt); test: Immunoblot of EGF-induced pERK and pAkt in Hs 578 T; format: cell-based, human; conditions: intermediate concentrations, 2 h
Gal1/B-RBD = Gal1/B-RBD (Homo sapiens, UniProt P15056); test: Gal1/B-RBD BRET in HEK cells; format: cell-based; conditions: peptide added to HEK cells, 0.1 µM to 100 µM, 2 h incubation; donor:acceptor 1:10; n ≥ 2
Gal1/B-RBD, sequence (P15056 155-227): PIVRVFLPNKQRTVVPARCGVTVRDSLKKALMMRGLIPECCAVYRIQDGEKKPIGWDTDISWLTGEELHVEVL

[3] = system: MIA PaCa-2 cells (pERK, pAkt); test: Immunoblot of EGF-induced pERK and pAkt in MIA PaCa-2; format: cell-based, human; conditions: intermediate concentrations, 2 h
Gal1 (Homo sapiens) [4] = target: Gal1 (Homo sapiens) (UniProt P09382); conditions: cited from earlier work
Target sequence in this assay (P09382 2-135): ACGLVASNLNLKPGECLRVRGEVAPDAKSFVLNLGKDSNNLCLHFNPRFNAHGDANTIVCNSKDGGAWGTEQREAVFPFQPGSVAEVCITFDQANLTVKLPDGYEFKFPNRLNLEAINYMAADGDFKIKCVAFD

GST-B-RBD = GST-B-RBD (Homo sapiens, UniProt P15056); test: Pull-down with biotinylated L5UR, GST-B-RBD; format: binding; conditions: biotinylated L5UR 4 µM, proteins 2 µM; n = 3
GST-B-RBD, sequence (P15056 155-227): as the sequence (P15056 155-227) above
Description: (§1) Biotinylated L5UR (bio-L5UR) peptide was synthesized as described above with a PEG5-linker to link the biotin to the L5UR peptide. GST, GST-B-Raf-RBD (155–227), and His-Gal1 were prepared as described above. Each protein in the assay was used at 2 µM concentration, and the peptide was at 4 µM in a reaction of 150 µL. First, peptide and Gal1 were pre-incubated for 30 min at 37 °C, then GST-B-RBD or GST alone was added, and the reaction continued for another hour. Control reaction mixes contained DMSO-vehicle instead of the peptide. At the end of the reaction time, 10 µL of each sample was withdrawn for SDS-PAGE analysis as inputs. For pull-downs, 5 µL of the beads were taken per sample. To prepare the beads, an appropriate volume of the slurry was pipetted into 15 mL falcon tubes and centrifuged at 830×g for 1 min to remove the ethanol-containing supernatant. The falcon tube was topped up to 15 mL with distilled water and centrifuged for 1 min to remove water. This washing step was repeated three times. Finally, the beads were resuspended in distilled water so that the final bead volume was 4× diluted i.e., 20 µL were pipetted to each tube. […] The analysis was done by resolving the samples (8 µL of the input samples and 10 µL of the eluted material) on 4–20% gradient SDS-PAGE gels and analyzed by Western blotting. […]

Gal1 [5] = test: Pull-down with biotinylated L5UR, Gal1; format: binding; conditions: biotinylated L5UR 4 µM, proteins 2 µM; n = 3
Description: as §1

Gal1/C-RBD = test: FLIM-FRET Gal1/C-RBD interaction in HEK cells; format: cell-based, rat Gal1; C-RBD of human C-Raf; HEK cells; conditions: mGFP-Gal1 / mRFP-C-RBD 1:3, expression (24 h) of plasmid or compound, n = 3
GST = test: Direct fluorescence polarization binding of F-L5UR to GST (control); conditions: 10 nM F-L5UR, n = 3
Description: For the direct binding assay, the GST-B-RBD, or GST, was 2-fold diluted in an assay buffer composed of 50 mM Tris HCl pH 7.4, 50 mM NaCl, 5 mM DTT, and 0.005% (v/v) Tween 20 in a black low volume, round bottom 384-well plate (Corning, #4514). Then 10 nM F-L5UR peptide was added to each well and incubated for 20 min at ~22 °C on a horizontal shaker. The fluorescence polarization measurement was performed on the Clariostar (BMG Labtech) plate reader, using a fluorescence polarization module (λexcitation 482 ± 8 nm and λemission 530 ± 20 nm). The milli fluorescence polarization, mP, was determined from the measured fluorescence intensities, calculated according to, mP=1000×Ih−Iv/Ih+Iv where Iv and Ih are the fluorescence emission intensities detected with vertical and horizontal polarization, respectively. The mP was plotted against the concentration of the GST-RBD and the KD value of the F-L5UR was calculated using a quadratic equation, y=Af+Ab−Af*Lt+KD+x−(Lt+KD+x)^2−4*Lt*x/2Lt

H-RasG12V nanoclustering [6] = test: Electron microscopy-based analysis of H-RasG12V nanoclustering in BHK cells; format: cell-based, baby hamster kidney (BHK) cells; conditions: membrane sheets of Gal1-expressing BHK cells; n = 15
Description: To quantify the nanoclustering of a component integral to the plasma membrane (PM), the apical PM sheets of baby hamster kidney (BHK) cells expressing a GFP-tagged H-Ras construct were fixed with 4% (w/v) PFA and 0.1% (w/v) glutaraldehyde. GFP anchored to the PM sheets was probed with 4.5 nm gold particles pre-coupled to anti-GFP antibody. Following embedment with methyl cellulose, the PM sheets were imaged using transmission electron microscopy (JEOL JEM-1400). Using the coordinates of every gold particle, Ripley’s K-function calculated the extent of nanoclustering of gold particles within a selected 1 μm^2 PM area: K(r)=An^−2∑i≠jwij1(∥xi−xj∥≤r) Lr−r=Kr/π−r where n gold particles populate in an intact area of A; r is the length between 1 and 240 nm; || ^. || indicates Euclidean distance where 1(^.) = 1 if ||xi − xj|| ≤ r and 1(^.) = 0 if ||xi − xj|| > r; K(r) specifies the univariate K-function. wij^−1 is a parameter used for an unbiased edge correction and characterizes the proportion of the circumference of a circle that has the center at xi and radius ||xi-xj||. Monte Carlo simulations estimate the 99% confidence interval (99% C.I.), which is then used to linearly transform K(r) into L(r) − r. On a nanoclustering curve of L(r) − r vs. r, the peak L(r) − r value is used as summary statistics for nanoclustering and is termed as Lmax. […]

Gal1 [7] = conditions: residues 22–45 of L5UR, opposite side of the carbohydrate binding site of Gal1; ref 38 (Elantak et al.); cited from earlier work
Description: (Supplementary Fig. 2a). […] We hypothesized that the 52-mer L5UR peptide, which was derived from a Gal1 interaction partner, could act as a Raf-RBD/Gal1-interface inhibitor. Its residues 22–45 were previously ... || page 9: Question 3-2. The authors measure the affinity of L5UR to BRAF GST-RBD using fluorescence polarization. The affinity is an increase is 40-fold over the affinity of this peptide to Gal1 – this is a significant enhancement, do the authors have an explanation for this? […] In the pull-downs containing both Gal1 and GST-RBD both proteins are pulled down to equal levels, again this is surprising as one would exp ...

H-RasG12V nanoclustering [8] = test: FLIM-FRET H-RasG12V nanoclustering in HEK cells; format: cell-based, HEK cells; rat Gal1; conditions: donor:acceptor 1:3, expression (24 h), n = 3
His-tagged Gal1 = test: Competitive fluorescence polarization, displacement of F-L5UR from His-tagged Gal1; format: binding; conditions: F-L5UR (5 nM), Gal1 (5 µM); n = 2
Gal1 (Homo sapiens) [9] = target: Gal1 (Homo sapiens) (UniProt P09382); conditions: cited from earlier work; remark: listed apart in the source
HEK cells (pERK, pAkt) = format: cell-based, human; conditions: 2 h, EGF 200 ng/mL 10 min; n = 3–8
[10] = target: B-Raf-derived RBD (BRET construct) (UniProt P15056)
B-Raf-derived RBD (BRET construct), sequence (P15056 155-227): as above

[11] = target: T1, C-Raf-RBD (50-134), purified (human, UniProt P04049 50-134); test: fluorescence polarisation; competitive: non-labeled peptides 3-fold diluted, added to a complex of F-L5UR and RBD (methods: 5 nM and 200 nM; legend of Fig. 2e: 10 nM and 15 µM GST-B-RBD); 30 min at ~22 °C; four-parameter fit; conditions: both partners purified
T1 construct: also called C-RBD; source: E. coli, purified (glutathione agarose)

[12] = target: T2, GST-tagged B-Raf-RBD (155-227) (human, UniProt P15056 155-227); test: as above; conditions: both partners purified
T2 construct: also called GST-B-RBD; GST-B-Raf-RBD; source: E. coli, purified (glutathione agarose)
T2 sequence (P15056 155-227): as above

[13] = target: T2, GST-tagged B-Raf-RBD (155-227); conditions: both partners purified
[14] = target: T1, C-Raf-RBD (50-134), purified; test: fluorescence polarisation; competitive: non-labeled peptides 3-fold diluted, added to a complex of F-L5UR and RBD (methods: 5 nM and 200 nM; legend of Fig. 2e: 10 nM and 15 µM GST-B-RBD); 30 min at ~22 °C; four-parameter fit; conditions: both partners purified; remark: listed apart in the source

## GRKKRRQRRRPQ [TAT, 12-residue cell penetrating peptide derived from an HIV-protein, reference compound]
H-RasG12V nanoclustering [1]; peptide added to HEK cells, 0.1 µM to 100 µM, 2 h incubation, donor:acceptor 1:5, 200 ng Gal1 plasmid
  effect of peptide on H-RasG12V nanoclustering BRET: Neither the TAT-peptide alone, nor the mutant TAT-mutL5URcore, or the non-TAT peptides L5URcore and mutL5URcore decreased the BRET-signal in either assay
[2]
  pERK- and/or pAkt-levels, Hs 578 T: apparently non-specific increase in pERK- and/or pAkt-levels
Gal1/B-RBD
  effect of peptide on Gal1/B-RBD BRET: Neither the TAT-peptide alone, nor the mutant TAT-mutL5URcore, or the non-TAT peptides L5URcore and mutL5URcore decreased the BRET-signal in either assay
[3]
  pERK- and/or pAkt-levels, MIA PaCa-2: apparently non-specific increase in pERK- and/or pAkt-levels

## L5UR peptide 22-45 (from UniProt P15814)
Gal1 (Homo sapiens) [4]
  Kd: 310 µM

## bio-L5UR: Biotinylated L5UR with a PEG5-linker linking biotin to the L5UR peptide ({Biotin-PEG5′}-LLRPTAASQSRALGPGAPGGSSRSSLRSRWGRFLLQRGSWTGPRCWPRGFQS-NH2)
GST-B-RBD
  pull-down of GST-B-RBD: pulled down Gal1 and the GST-B-RBD independently from each other
Gal1 [5]
  pull-down of Gal1: pulled down Gal1 and the GST-B-RBD independently from each other

## CN(C)CCNC(=O)COc1c2cccc1Cc1cccc(c1OCC(=O)NCCN(C)C)Cc1cccc(c1OCC(=O)NCCN(C)C)Cc1cccc(c1OCC(=O)NCCN(C)C)C2 [OTX-008]
Gal1/C-RBD
  effect on Gal1/C-RBD FRET: neither Anginex nor OTX-008 disrupted the Gal1/C-RBD interaction

## F-L5UR: fluorescein attached to N-terminus amino group of L5UR via aminohexanoic acid linker ({fluorescein-Ahx}-LLRPTAASQSRALGPGAPGGSSRSSLRSRWGRFLLQRGSWTGPRCWPRGFQS)
GST
  binding to GST alone: no binding to GST alone; also recorded: negligible binding

## Ac-LLRPTAASQSRALGPGAPGGSSRSSLRSRWGRFLLQRGSWTGPRCWPRGFQS-NH2 (N-terminus and C-terminus assumed) [L5UR]
H-RasG12V nanoclustering [1]; expression (48 h), HEK cells comparatively devoid of Gal1, donor:acceptor 1:5
  effect of construct expression on H-RasG12V nanoclustering-BRET without co-expression of Gal1: very similar effects even without co-expression of Gal1
H-RasG12V nanoclustering [1]; expression (48 h), co-transfection of 200 ng Gal1 plasmid, donor:acceptor 1:5, Fig. 3c
  reduction of H-RasG12V nanoclustering-BRET: ~ 33%
H-RasG12V nanoclustering [6]
  disruption of H-RasG12V nanoclustering (Lmax): disruption of H-RasG12V nanoclustering by L5UR- and L5UR-SNAP construct expression
Gal1 [7]
  Kd: 310 µM
H-RasG12V nanoclustering [8]; Gal1-augmented
  effect on H-RasG12V nanoclustering-FRET: decreased the Gal1-augmented H-RasG12V nanoclustering-FRET
H-RasG12V nanoclustering [8]; dimerization-deficient N-Gal1
  effect on H-RasG12V nanoclustering-FRET, N-Gal1: had no additional effect
Gal1/C-RBD
  effect on Gal1/C-RBD FRET: decreased the FRET between mGFP-Gal1 and mRFP-C-RBD

## Anginex
His-tagged Gal1
  displacement of F-L5UR from Gal1: it can be displaced from purified His-tagged Gal1
Gal1/C-RBD
  effect on Gal1/C-RBD FRET: neither Anginex nor OTX-008 disrupted the Gal1/C-RBD interaction

## Gal1 (from UniProt P09382)
Gal1 (Homo sapiens) [9]
  Kd: 7 µM

## CC(=O)Nc1cccc(-n2c(=O)n(C3CC3)c(=O)c3c(Nc4ccc(I)cc4F)n(C)c(=O)c(C)c32)c1 [trametinib, reference compound]
HEK cells (pERK, pAkt)
  pAkt levels, HEK: also upregulated by trametinib

B1: L5UR peptide, untagged, expressed in cells (peptide)
chain: LLRPTAASQSRALGPGAPGGSSRSSLRSRWGRFLLQRGSWTGPRCWPRGFQS
[10]
  reduction of Gal1-enhanced H-RasG12V nanoclustering-BRET in HEK cells on expression of the construct (it blocks Gal1/B-RBD): 33%

B2: L5UR peptide, non-labeled (peptide, UniProt P15814 38-89, looked up)
peptide: B1 chain
notes: 52-mer L5UR: residues 38-89 of the unique region of the λ5-chain (λ5-UR) of the pre-B-cell receptor; also called full-length peptide of L5UR; source: synthetic peptide; bought: Pepmic Co., China
[11]
  IC50: 4 ± 1 µM
[12]
  IC50: 2000 ± 1000 nM

B3: FITC-tagged full-length L5UR (peptide, UniProt P15814 38-89, looked up)
peptide: {FITC-Ahx}-LLRPTAASQSRALGPGAPGGSSRSSLRSRWGRFLLQRGSWTGPRCWPRGFQS
notes: 52-mer L5UR: residues 38-89 of the unique region of the λ5-chain (λ5-UR) of the pre-B-cell receptor; also called F-L5UR; source: synthetic peptide; bought: Pepmic Co., China
[13]
  Kd: 7.3 ± 0.7 µM
[14]
  binding result: binds
